Literature values as cited in patent US11352671B2, “Predicting therapeutic response in Parkinson's disease” (Vanderbilt University, priority 2015, dated 2022).

Conditions: in vivo

N[C@@H](Cc1ccc(O)c(O)c1)C(=O)O [levodopa]
share that crosses the blood-brain barrier: 5-10%
